Test results: patent EP4752140A1, “SPIROCYCLICALKENYL OR AZAALKENYL COMPOUND, AND PHARMACEUTICAL COMPOSITION THEREOF, PREPARATION METHOD THEREFOR AND USE THEREOF” (Shanghai Meiyue Biotech Development Co., Ltd., priority 2023, dated 2025)

Tests used:
normal human serum (NHS) = experiment: Complement-mediated hemolytic activity assay; assay type: cell-based; conditions: Erythrocyte, lysis of rabbit erythrocytes (RE) by NHS, GVB0 buffer with 10 mM Mg-EGTA, 37°C, read-out: Hemolysis IC50
Procedure: The hemolysis assay was performed with reference to the method described in Xuan Yuan et al., Haematologica. (2017) 102: 466-475. Prior to the assay, the optimal concentration of normal human serum (NHS) required to achieve 100% lysis of rabbit erythrocytes (RE) was determined by titration. In this assay, NHS (collected from healthy volunteers) was diluted in GVB^0 buffer containing 10 mM Mg-EGTA (0.1% gelatin, 5 mM Veronal, 145 mM NaCl, 0.025% NaN3, pH 7.3, Complement Technology) and incubated with various concentrations of test compounds at 37°C for 15 minutes. RE (collected from healthy Japanese white rabbits), freshly suspended in GVB^0 buffer containing 10 mM Mg-EGTA, were then added to achieve a final concentration of 1 × 10^8 cells/mL and incubated at 37°C for 30 minutes. The positive control group (100% lysis) consisted of GVB^0 buffer containing 10 mM Mg-EGTA with NHS and RE but without test compounds. The negative control group (0% lysis) consisted of GVB^0 buffer containing 10 mM Mg-EGTA with inactivated NHS (heated at 56°C for 30 minutes or 65°C for 5 minutes) and RE but without test compounds. After centrifugation of the samples at 2000 g for 5 minutes, the supernatant was collected. Absorbance at 415 nm (A415) was measured using a microplate reader (Molecular Devices, SpectraMax i3X). IC50 values were calculated by nonlinear regression from the percentage of hemolysis as a function of test compound concentration.

[1] = Single-dose PK study in rats; assay type: in vivo; conditions: male SD rats, oral gavage 3 mg/kg, plasma; for half-life: read-out: Half-life T1/2 (converted); for Cmax: read-out: Maximum plasma concentration Cmax
Procedure: (§1) Male SD rats (Shanghai Bikai Keyi Biotechnology Co. Ltd.) aged 6 to 9 weeks were fasted overnight. Three […] per group were administered the test compounds by oral gavage at a dosing volume of 10 mL/kg. Blood samples (0.2 mL per time point) were collected via the jugular vein into EDTA-K2 anticoagulant tubes and immediately centrifuged at 4000 rpm for 5 minutes at 4°C. The supernatants were collected. Blood samples were collected at the following time points: 15 minutes, 30 minutes, 1 hour, 2 hours, 4 hours, 7 hours, and 24 hours. The animals were continuously monitored for general condition after dosing. After completion of blood collection at all time points, the animals were euthanized. Plasma samples were analyzed by LC-MS/MS, and pharmacokinetic parameters were calculated using WinNonlin software.

[2] = system: Alternative Pathway of the Human Serum Complement System; experiment: Inhibitory effect on the alternative pathway of the human serum complement system (Wieslab kit); assay type: biochemical; conditions: complement activity, OD405, LPS-coated plate
Procedure: Test compounds were evaluated starting at a concentration of 10 µM, with 3-fold serial dilutions across 8 concentration points. The final concentration of DMSO was 0.1%, and all measurements were performed in duplicate. A vial of human serum (Complement Technology, NHS) was removed from a -80°C ultra-low temperature freezer and allowed to thaw completely on ice. […] The plate was gently mixed on a microplate thermoshaker and incubated at room temperature for 15 minutes. Subsequently, 100 µL of the above mixture was carefully transferred to the pre-coated (LPS-containing) plate provided in the kit (WIESLAB® Complement System Alternative Pathway, AP330RUO). Additionally, 100 µL of Diluent AP was used as a blank control to avoid bubble formation. The plate was incubated at 37°C for 65 minutes. After incubation, the liquid in the wells was discarded, and the plate was washed with 1× wash buffer (300 µL/well) four times, with the liquid being removed as thoroughly as possible from the plate after the final wash. 100 µL of conjugate was added to each well, and the plate was incubated at room temperature (20 to 25°C) for 30 minutes, followed by repetition of the washing step. 100 µL of substrate solution was then added to each well, and the plate was incubated at room temperature (20 to 25°C) for 30 minutes in the dark. The OD405 value was read immediately, or the reaction was terminated by addition of 5 mM EDTA, and the OD405 value was read within 60 minutes. Complement activity was calculated according to the formula: % complement activity = (Sample - NC) / (PC - NC) × 100, and data analysis was performed.

[3] = Single-dose PK study in mice; conditions: mouse, in vivo, male ICR mice, oral gavage 10 mg/kg, plasma
Procedure: as §1, with “ICR mice” for “SD rats”, “Co.,” for “Co.”, “weighing approximately 25 g” for “aged 6 to 9 weeks”, “(30 µL” for “(0.2 mL”, “orbital sinus” for “jugular vein”

[4] = rat, read-out: Area under the curve AUC0-24h
[5] = rat, in vivo, read-out: Area under the curve AUC0-24h

Question: Which IC50 (normal human serum (NHS)) does the source give for `COc1cc(C)c2[nH]ccc2c1CN1CCC(=C(F)F)C[C@H]1c1ccc(C(=O)O)cc1` [Compound 19] here?
Answer: Its IC50 is 2790 nM.

Question: For `COc1cc(C)c2[nH]ccc2c1CN1CC[C@H](C=C2CC2)C[C@H]1c1ccc(C(=O)O)cc1` [Compound 41-P1], which IC50 (normal human serum (NHS)) is on record?
Answer: The IC50 was 34.8 nM.

Question: For `CCO[C@H]1CCN(Cc2c(OC)cc(C)c3[nH]ccc23)[C@H](c2ccc(C(=O)O)cc2)C1` [Comparative Example 1, reference compound], which “Clearance CL” value [1] is on record?
Answer: The value was 13.549 mL/min/kg.

Question: What about the AUC(0-t) [1, 4] of the same compound?
Answer: The AUC(0-t) was 3660 ng·h/mL.

Question: What about the half-life ([1]; rat) of the same compound?
Answer: Its half-life is 3.38 h.

Question: What about the Cmax ([1]; rat) of the same compound?
Answer: Its Cmax is 714 ng/mL.

Question: With `COc1cc(C)c2[nH]ccc2c1CN1CCC(C=C(F)F)C[C@H]1c1ccc(C(=O)O)cc1Cl` (some centres unmarked) [Compound 34-1] as the compound, how does the IC50 (normal human serum (NHS)) read?
Answer: Its IC50 is 61.6 nM.

Question: For `COc1cc(C)c2[nH]ccc2c1CN1CC[C@H](C=C(F)F)C[C@H]1c1ccc(C(=O)O)cc1C` (single isomer, unassigned) [Compound 33-P1], which IC50 (normal human serum (NHS)) is on record?
Answer: The IC50 was 82.2 nM.

Question: What about the IC50 [2] of the same compound?
Answer: The IC50 was 50.4 nM.

Question: And the AUC(0-t) at 24 h [1, 5]?
Answer: Its AUC(0-t) at 24 h is 10700 ng·h/mL.

Question: And the half-life ([1]; rat, in vivo)?
Answer: The half-life was 11.2 h.

Question: What about the Cmax ([1]; rat, in vivo) of the same compound?
Answer: Its Cmax is 1240 ng/mL.

Question: Which results are given for `COc1cc([C@@H]2C[C@@H](C=C(F)F)CCN2Cc2c(OC)cc(C)c3[nH]ccc23)ccc1C(=O)O` [Compound 36-P1]?
Answer: IC50 (normal human serum (NHS)): 44 nM; AUC(0-t) at 24 h [1, 5]: 4500 ng·h/mL; half-life ([1]; rat, in vivo): 8.29 h; Cmax ([1]; rat, in vivo): 667 ng/mL

Question: For `[2H]C([2H])([2H])Oc1cc(C)c2[nH]ccc2c1CN1CC[C@H](C=C(F)F)C[C@H]1c1ccc(C(=O)O)cc1` [Compound 39-P1], which IC50 (normal human serum (NHS)) is on record?
Answer: Its IC50 is 113 nM.

Question: What about the AUC(0-t) at 24 h [1, 4] of the same compound?
Answer: Its AUC(0-t) at 24 h is 13300 ng·h/mL.

Question: What about the half-life ([1]; rat) of the same compound?
Answer: Its half-life is 9.44 h.

Question: What about the Cmax ([1]; rat) of the same compound?
Answer: Its Cmax is 1280 ng/mL.

Question: With `COc1cc(C)c2[nH]ccc2c1CN1CC[C@H](C=C(F)F)C[C@H]1c1ccc(C(=O)O)c(O)c1` [Compound 40-P1] as the compound, how does the IC50 (normal human serum (NHS)) read?
Answer: Its IC50 is 21.8 nM.

Question: With `COc1cc(Cl)c2[nH]ccc2c1CN1CC[C@H](C=C(F)F)C[C@H]1c1ccc(C(=O)O)cc1` [Compound 38-P1] as the compound, how does the IC50 (normal human serum (NHS)) read?
Answer: The IC50 was 139 nM.

Question: For `COc1cc(C)c2[nH]ccc2c1CN1CC[C@H](C=C(F)F)C[C@H]1c1ccc(C(=O)O)c(Cl)c1` [Compound 35-P1], which IC50 (normal human serum (NHS)) is on record?
Answer: The IC50 was 61.5 nM.

Question: With `COc1cc(C)c2[nH]ccc2c1CN1CC[C@H](C=C(F)F)C[C@H]1c1ccc(C(=O)O)cc1` [Compound 32-P1] as the compound, how does the IC50 (normal human serum (NHS)) read?
Answer: The IC50 was 94.2 nM.

Question: What about the IC50 [2] of the same compound?
Answer: Its IC50 is 47.3 nM.

Question: What about the AUC(0-t) at 24 h [1, 4] of the same compound?
Answer: The AUC(0-t) at 24 h was 17600 ng·h/mL.

Question: What about the half-life ([1]; rat) of the same compound?
Answer: The half-life was 13.2 h.

Question: What about the Cmax ([1]; rat) of the same compound?
Answer: Its Cmax is 1290 ng/mL.

Question: Which IC50 (normal human serum (NHS)) does the source give for `Cc1cc(C2CC2)c(CN2CC[C@H](C=C(F)F)C[C@H]2c2ccc(C(=O)O)cc2)c2cc[nH]c12` [Compound 60-P1] here?
Answer: Its IC50 is 116 nM.

Question: What does the source list for `COc1cc(C)c2[nH]ccc2c1CN1CCC2(CC(=C(F)F)C2)C[C@H]1c1ccc(C(=O)O)cc1` (some centres unmarked) [Compound 1]?
Answer: IC50 (normal human serum (NHS)): 86.2 nM; IC50 [2]: 53.2 nM; AUC(0-t) at 24 h ([3]; read-out: Area under the curve AUC0-24h): 9230 ng·h/mL; half-life ([3]; read-out: Half-life T1/2 (converted)): 13.1 h; Cmax ([3]; read-out: Maximum plasma concentration Cmax): 1530 ng/mL; AUC(0-t) at 24 h [1, 5]: 8320 ng·h/mL; half-life ([1]; rat, in vivo): 11.3 h; Cmax ([1]; rat, in vivo): 720 ng/mL

Question: For `Cc1cc(C)c2[nH]ccc2c1CN1CC[C@H](C=C(F)F)C[C@H]1c1ccc(C(=O)O)cc1` [Compound 37-P1], which IC50 (normal human serum (NHS)) is on record?
Answer: The IC50 was 20.7 nM.
